Reference: ChEMBL document CHEMBL4619735, “Design, synthesis and anti-influenza A virus activity of novel 2,4-disubstituted quinazoline derivatives” (Bioorg Med Chem Lett, 2020)
Calls of active or inactive are those of the source. The calls are words filed in the database; no cut-off is given here.

system: Influenza A virus; assay: Potency index, ratio of ribavirin IC50 to test compound IC50 for antiviral activity against Influenza A virus A/WSN/33(H1N1) infected in human 293T cells pretreated for 2 hrs followed by viral infection and measured after 24 hrs by Gaussia luciferase reporter gene assay; assay type: functional, A/WSN/1933(H1N1), HEK-293T; details: not given

For CN(C)c1nc(OCC(=O)Nc2ccccc2)c2ccccc2n1, which “Ratio IC50” value is on record?
The value was 4.1.

system: Influenza A virus; assay: Antiviral activity against Influenza A virus A/WSN/33(H1N1) infected in human 293T cells pretreated for 2 hrs followed by viral infection and measured after 24 hrs by Gaussia luciferase reporter gene assay; assay type: functional, organism-based; details: A/WSN/1933(H1N1), HEK-293T

O=C(NCCOc1nc(N2CCc3ccccc3C2)nc2ccccc12)c1ccccc1 was tested. Which IC50 did it give?
The IC50 was 4.19 µM.

O=C(COc1nc(N2CCCC2)nc2ccccc12)Nc1nccs1 was tested. Which IC50 did it give?
Its IC50 is 39.4 µM.

For O=C(COc1nc(N2CCc3ccccc3C2)nc2ccccc12)NCc1ccccc1, which IC50 is on record?
The IC50 was 17.7 µM.

How did the IC50 turn out when O=C(NCCOc1nc(Cl)nc2ccccc12)c1ccccc1 was run?
The IC50 was 48 µM.

For O=C(NCCOc1nc(N2CCCC2)nc2ccccc12)c1cccs1, which IC50 is on record?
The IC50 was 18.2 µM.

With CN(C)c1nc(OCC(=O)Nc2ccccc2)c2ccccc2n1 as the molecule, how does the IC50 read?
The IC50 was 3.7 µM.

How did the IC50 turn out when COc1ccc(OC(=O)NCCOc2nc(N3CCCC3)nc3ccccc23)cc1 was run?
The IC50 was 55.3 µM.

NC(=O)c1ncn([C@@H]2O[C@H](CO)[C@@H](O)[C@H]2O)n1 [RIBAVIRIN] was tested. Which IC50 did it give?
The IC50 was 15.4 µM.

With CCOc1ccccc1CNC(=O)COc1nc(N2CCCC2)nc2ccccc12 as the molecule, how does the IC50 read?
Its IC50 is 17.7 µM.

Which IC50 does the source give for CCOC(=O)COc1nc(N2CCCC2)nc2ccccc12 here?
The IC50 was 16.6 µM.

O=C(NCCOc1nc(N2CCCC2)nc2ccccc12)c1ccc(C(F)(F)F)cc1 was tested. Which IC50 did it give?
Its IC50 is 8.64 µM.

For O=C(COc1nc(Cl)nc2ccccc12)NCc1ccccc1, which IC50 is on record?
Its IC50 is 26.5 µM.

With O=C(O)COc1nc(N2CCCC2)nc2ccccc12 as the molecule, how does the IC50 read?
The IC50 was 60.1 µM.

system: Influenza A virus; assay: Antiviral activity against Influenza A virus A/WSN/33(H1N1) infected in human 293T cells assessed as inhibition of viral replication at 10 uM pretreated for 2 hrs followed by viral infection and measured after 24 hrs by Gaussia luciferase reporter gene assay; assay type: functional, organism-based; details: A/WSN/1933(H1N1), HEK-293T

With O=C(NCCOc1nc(N2CCc3ccccc3C2)nc2ccccc12)c1ccccc1 as the molecule, how does the inhibition read?
The inhibition was “Active”.

With NCCOc1nc(N2CCCC2)nc2ccccc12 as the molecule, how does the inhibition read?
The inhibition was “inactive”.

How did the inhibition turn out when O=C(COc1nc(N2CCCC2)nc2ccccc12)Nc1nccs1 was run?
The inhibition was “Active”.

Which inhibition does the source give for O=C(NCCOc1nc(N2CCCC2)nc2ccccc12)C1CCCCC1 here?
The inhibition was “inactive”.

How did the inhibition turn out when O=C(COc1nc(N2CCCC2)nc2ccccc12)NC1CC1 was run?
Its inhibition is “inactive”.

For O=C(NCCOc1nc(N2CCCC2)nc2ccccc12)C1CC1, which inhibition is on record?
The inhibition was “Active”.

How did the inhibition turn out when O=C(COc1nc(N2CCCC2)nc2ccccc12)NC12CC3CC(CC(C3)C1)C2 was run?
Its inhibition is “inactive”.

CC(=O)c1ccc(C(=O)NCCOc2nc(N3CCCC3)nc3ccccc23)cc1 was tested. Which inhibition did it give?
Its inhibition is “inactive”.

Which inhibition does the source give for CCOc1ccccc1CNC(=O)COc1nc(N2CCCC2)nc2ccccc12 here?
The inhibition was “Active”.

For O=C(COc1nc(N2CCCC2)nc2ccccc12)Nc1ccc2ccccc2c1, which inhibition is on record?
The inhibition was “inactive”.

With O=C(NCCOc1nc(N2CCCC2)nc2ccccc12)c1ccccc1 as the molecule, how does the inhibition read?
The inhibition was “Active”.
